The values that follow come from PubChem BioAssay AID248 (DTP/NCI, 2004).

Structures are written as SMILES. Where “and” joins values, the source holds several entries; their conditions need not be identical. Identical values can stand only once. Inconclusive results and toxic doses are left out.

The test relates to L1210 leukemia ip in BDF1 mice, survival T/C. The test can be described thus: NCI In Vivo Anticancer Drug Screen. Data for tumor model L1210 Leukemia (intraperitoneal) in B6D2F1 (BDF1) mice. As to conditions: endpoint: mean survival time, higher = longer survival. The essentials: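 Transplantable tumor model; survival measured in treated vs vehicle control mice. Value = treated/control.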

[1] abbreviates: dose: 100.0 mg/kg/injection, schedule: Q01DX001 (ip), vehicle: Klucel (hydroxypropylcellulose) (HPC).
The mark [2] stands for this setting: dose: 200.0 mg/kg/injection, schedule: Q01DX001 (ip), vehicle: Klucel (hydroxypropylcellulose) (HPC).
Where [3] appears, read: dose: 100.0 mg/kg/injection, schedule: Q04DX002 (ip), vehicle: saline with Tween-80.
The mark [4] stands for this setting: dose: 100.0 mg/kg/injection, schedule: Q01DX001 (ip), vehicle: saline.
Where [5] appears, read: dose: 200.0 mg/kg/injection, schedule: Q01DX001 (ip), vehicle: saline.
[6] abbreviates: dose: 100.0 mg/kg/injection, schedule: Q04DX003 (ip), vehicle: saline.
The mark [7] stands for this setting: dose: 200.0 mg/kg/injection, schedule: Q04DX003 (ip), vehicle: saline.
Setting [8] is: dose: 50.0 mg/kg/injection, schedule: Q04DX003 (ip), vehicle: Klucel (hydroxypropylcellulose) (HPC).
The mark [9] stands for this setting: dose: 100.0 mg/kg/injection, schedule: Q04DX003 (ip), vehicle: Klucel (hydroxypropylcellulose) (HPC).
[10] abbreviates: dose: 200.0 mg/kg/injection, schedule: Q04DX002 (ip), vehicle: saline with Tween-80.
Where [11] appears, read: dose: 400.0 mg/kg/injection, schedule: Q04DX002 (ip), vehicle: saline with Tween-80.

With `CC12CC[C]([Hg][I])(CC1)C2(C)C`, the T/C runs as follows: (dose: 6.25 mg/kg/injection, schedule: Q01DX009 (ip), vehicle: saline with Tween-80) 101 % of control and 103 % of control; (dose: 12.5 mg/kg/injection, schedule: Q01DX009 (ip), vehicle: saline with Tween-80) 95 % of control and 110 % of control; (dose: 25.0 mg/kg/injection, schedule: Q01DX009 (ip), vehicle: saline with Tween-80) 98 % of control and 211 % of control; (dose: 50.0 mg/kg/injection, schedule: Q01DX009 (ip), vehicle: saline with Tween-80) 91 % of control.

With `C=C(Cl)C(=O)OCC`, the T/C (dose: 5.0 mg/kg/injection, schedule: Q01DX009 (ip), vehicle: saline) is 103 % of control; the T/C (dose: 5.0 mg/kg/injection, schedule: Q04DX003 (ip), vehicle: saline with Tween-80) is 93 % of control; the T/C (dose: 10.0 mg/kg/injection, schedule: Q01DX009 (ip), vehicle: saline) was 98 % of control; the T/C (dose: 10.0 mg/kg/injection, schedule: Q04DX003 (ip), vehicle: saline with Tween-80) is 95 % of control; the T/C (dose: 20.0 mg/kg/injection, schedule: Q01DX009 (ip), vehicle: saline) is 104 % of control; the T/C (dose: 20.0 mg/kg/injection, schedule: Q04DX003 (ip), vehicle: saline with Tween-80) was 95 % of control.

As to `CCCCSc1nc(NC(C)C)nc(NC(C)C)n1`, the T/C reads like this: (dose: 100.0 mg/kg/injection, schedule: Q04DX002 (sc), vehicle: olive oil, sesame oil, peanut oil) 118 % of control; (dose: 200.0 mg/kg/injection, schedule: Q04DX002 (sc), vehicle: olive oil, sesame oil, peanut oil) 115 % of control; (dose: 400.0 mg/kg/injection, schedule: Q04DX002 (sc), vehicle: olive oil, sesame oil, peanut oil) 101 % of control.

As to `COc1ccc(C=Nc2ccc(OC(C)=O)cc2)cc1`, the T/C is 105 % of control (dose: 176.0 mg/kg/injection, schedule: Q01DX009 (ip), vehicle: other) and 120 % of control (dose: 264.0 mg/kg/injection, schedule: Q01DX009 (ip), vehicle: other).

Take `COc1ccc(NC(=O)Nc2ccc(S(N)(=O)=O)cc2)c(OC)c1`: the T/C is, setting by setting: (dose: 100.0 mg/kg/injection, schedule: Q01DX009 (ip), vehicle: Klucel (hydroxypropylcellulose) (HPC)) 96 % of control; (dose: 200.0 mg/kg/injection, schedule: Q01DX009 (ip), vehicle: Klucel (hydroxypropylcellulose) (HPC)) 94 % of control; (dose: 400.0 mg/kg/injection, schedule: Q01DX009 (ip), vehicle: Klucel (hydroxypropylcellulose) (HPC)) 88 % of control.

In the case of `N#C/C(=N\N=Nc1ccccc1)c1ccccc1`, the T/C runs as follows: (dose: 1.5 mg/kg/injection, schedule: Q01DX009 (ip), vehicle: DMSO) 90 % of control; (dose: 6.0 mg/kg/injection, schedule: Q01DX009 (ip), vehicle: DMSO) 92 % of control; (dose: 12.5 mg/kg/injection, schedule: Q01DX009 (ip), vehicle: DMSO) 98 % of control; (dose: 12.5 mg/kg/injection, schedule: Q04DX003 (ip), vehicle: DMSO) 98 % of control; (dose: 25.0 mg/kg/injection, schedule: Q04DX003 (ip), vehicle: DMSO) 98 % of control; (dose: 50.0 mg/kg/injection, schedule: Q04DX003 (ip), vehicle: DMSO) 102 % of control.

As to `Cn1[nH]c(NC=O)c2cc3c(=O)[nH]c(=O)cc3nc21`, the T/C is, setting by setting: under setting [1], 93 % of control; under setting [2], 90 % of control.

Turning to `CCOc1ccc2ccccc2c1OP(=O)(OCC)OCC`, the T/C (dose: 100.0 mg/kg/injection, schedule: Q04DX002 (ip), vehicle: other) was 103 % of control; the T/C (dose: 200.0 mg/kg/injection, schedule: Q04DX002 (ip), vehicle: other) was 113 % of control; the T/C (dose: 400.0 mg/kg/injection, schedule: Q04DX002 (ip), vehicle: other) is 106 % of control.

`N=C(N)SCc1cccc(Cl)c1`: the T/C reads like this: (dose: 25.0 mg/kg/injection, schedule: Q04DX002 (ip), vehicle: saline with Tween-80) 100 % of control; (dose: 50.0 mg/kg/injection, schedule: Q04DX002 (ip), vehicle: saline with Tween-80) 93 % of control; under setting [3], 90 % of control.

In the case of `COC1OC(CO)C(O)C1n1cnc2c(N)ncnc21` (stereo not given), the T/C was 90 % of control (dose: 25.0 mg/kg/injection, schedule: Q01DX001 (ip), vehicle: saline); 106 % of control (dose: 50.0 mg/kg/injection, schedule: Q01DX001 (ip), vehicle: saline); 103 % of control under setting [4].

In the case of `CCCCSC(=O)C(O)c1ccccc1` (stereo not given), the T/C is 105 % of control under setting [4]; 104 % of control under setting [5]; 105 % of control (dose: 400.0 mg/kg/injection, schedule: Q01DX001 (ip), vehicle: saline).

Turning to `CCCC(=O)/C=C/c1ccc(C)cc1`, the T/C under setting [6] is 96 % of control; the T/C under setting [7] is 112 % of control; the T/C (dose: 400.0 mg/kg/injection, schedule: Q04DX003 (ip), vehicle: saline) was 96 % of control.

For `CCCCn1c(Cl)c(C(=O)O)c2ccccc21`, the T/C reads like this: under setting [8], 94 % of control; under setting [9], 91 % of control; (dose: 200.0 mg/kg/injection, schedule: Q04DX003 (ip), vehicle: Klucel (hydroxypropylcellulose) (HPC)) 90 % of control.

Take `CCOP(=O)(/C=C/NC1CCCCC1)OCC`: the T/C was 90 % of control (dose: 50.0 mg/kg/injection, schedule: Q04DX003 (ip), vehicle: saline); 109 % of control under setting [4]; 89 % of control under setting [6]; 114 % of control under setting [5]; 101 % of control under setting [7].

For `Cc1ccc(C)c(NC(=S)NC(=O)c2ccc(Cl)cc2Cl)c1`, the T/C is, setting by setting: (dose: 100.0 mg/kg/injection, schedule: Q01DX001 (ip), vehicle: saline with Tween-80) 104 % of control; under setting [3], 95 % of control and 100 % of control; (dose: 100.0 mg/kg/injection, schedule: Q04DX003 (ip), vehicle: saline with Tween-80) 102 % of control; (dose: 200.0 mg/kg/injection, schedule: Q01DX001 (ip), vehicle: saline with Tween-80) 104 % of control; under setting [10], 96 % of control and 110 % of control; (dose: 200.0 mg/kg/injection, schedule: Q04DX003 (ip), vehicle: saline with Tween-80) 105 % of control. Also, the T/C is 100 % of control (dose: 400.0 mg/kg/injection, schedule: Q01DX001 (ip), vehicle: saline with Tween-80); 96 % of control and 102 % of control under setting [11]; 100 % of control (dose: 400.0 mg/kg/injection, schedule: Q04DX003 (ip), vehicle: saline with Tween-80).

With `N=C1SC(c2ccccc2)c2ccccc21` (stereo not given), the T/C under setting [1] is 98 % of control; the T/C under setting [2] was 93 % of control; the T/C (dose: 400.0 mg/kg/injection, schedule: Q01DX001 (ip), vehicle: Klucel (hydroxypropylcellulose) (HPC)) was 95 % of control.

With `O=C1C(Br)=CC(=NBr)C=C1Br`, the T/C was 101 % of control (dose: 25.0 mg/kg/injection, schedule: Q04DX003 (ip), vehicle: Klucel (hydroxypropylcellulose) (HPC)); 101 % of control under setting [8]; 97 % of control under setting [9].

For the molecule `CCCC(CN)(CCN1CCOCC1)c1cccc2ccccc12` (stereo not given), the T/C was 98 % of control under setting [6] and 95 % of control under setting [7].

For the molecule `C[Si](C)(c1ccc(C(=O)Cl)cc1)c1ccc(C(=O)Cl)cc1`, the T/C runs as follows: under setting [3], 96 % of control; under setting [10], 96 % of control; under setting [11], 100 % of control.

As for `O=C(SSC(=O)c1ccccc1)c1ccccc1`, the T/C by setting is: (dose: 50.0 mg/kg/injection, schedule: Q01DX001 (ip), vehicle: carboxymethylcellulose (CMC)) 96 % of control; (dose: 100.0 mg/kg/injection, schedule: Q01DX001 (ip), vehicle: carboxymethylcellulose (CMC)) 94 % of control; (dose: 200.0 mg/kg/injection, schedule: Q01DX001 (ip), vehicle: carboxymethylcellulose (CMC)) 90 % of control; (dose: 400.0 mg/kg/injection, schedule: Q01DX001 (ip), vehicle: carboxymethylcellulose (CMC)) 107 % of control.

As to `CCC(=O)C(CCN(C)C)(c1ccccc1)c1ccccn1` (stereo not given), the T/C is 98 % of control (dose: 44.0 mg/kg/injection, schedule: Q01DX Z (ip), vehicle: saline) and 104 % of control (dose: 66.0 mg/kg/injection, schedule: Q01DX Z (ip), vehicle: saline).
